The subject of test [1] is TGFβ target genes. Briefly: Basal expression of TGFβ target genes by Q-RT-PCR in primary human liver stellate cells. The following applies: DMEM 1% FBS, 48 hours, normalized to GAPDH, FIG. 1, p<0.01 vs. control. The test is classed as cell-based. On the procedure: Primary human liver stellate cells were treated in DMEM containing 1% fetal bovine serum (FBS) for 24 hours. Next, they were treated with control vehicle or Oxy210. After 48 hours, RNA was extracted and analyzed by Q-RT-PCR for the expression of the genes as indicated and normalized to GAPDH expression.

Test [2] relates to profibrogenic genes. As to the kind of experiment: Basal expression of profibrogenic genes by Q-RT-PCR in primary human pericytes. The test is classed as cell-based. The following applies: DMEM 5% FBS, 72 hours, normalized to GAPDH, FIG. 2, p<0.01 vs. control. As to the method: Primary human pericytes were treated with control vehicle or Oxy210 for 72 hours in DMEM containing 5% FBS. RNA was extracted and analyzed by Q-RT-PCR for the expression of profibrotic genes and normalized to GAPDH expression.

For test [3], the system named is Primary human renal proximal tubular epithelial cells. Briefly: TGFβ-induced epithelial mesenchymal transition (EMT) of renal tubular epithelial cells, Q-RT-PCR of EMT markers and Gli1. As to conditions: TGFβ 10 ng/mL, 48 hours, FIG. 4, p<0.01 vs. TGFβ. The test is classed as cell-based. As to the method: Primary human renal proximal tubular epithelial cells cultured in RPMI containing 1% FBS were treated with TGFβ (10 ng/mL) in the absence or presence of Oxy210 for 48 hours. RNA was extracted and analyzed by Q-RT-PCR for the expression of the EMT markers and Gli1 and normalized to GAPDH expression.

Test [4] has as its system IMR-90 cells. As to the kind of experiment: IMR-90 lung fibroblast cell proliferation (cell count). As to conditions: IMR-90 normal human lung fibroblast cells, DMEM 1% FBS, 5 days; FIG. 5, p<0.01 vs. control. It counts as cell-based. On the procedure:
IMR-90 cells were treated with Oxy210 at the concentrations as indicated in DMEM containing 1% FBS for 5 days and then were trypsinized and counted.

Test [5] has as its system LL97A cells. As to the kind of experiment: LL97A lung fibroblast cell proliferation (cell count). It counts as cell-based. As to conditions: LL97A human lung fibroblast cells from a subject with idiopathic pulmonary fibrosis, F12K 1% FBS, 5 days; FIG. 6. As to the method: LL97A cells were treated with Oxy210 at the concentrations as indicated in F12K containing 1% FBS for 5 days and then were trypsinized and counted.

For test [6], the system named is IMR-90 cells. Briefly: Basal profibrotic gene expression by Q-RT-PCR in IMR-90 cells. The test is classed as cell-based, human. As to conditions: F12K 1% FBS, 72 hours, FIG. 7. As to the method: IMR-90 cells were treated in F12K medium containing 1% FBS and Oxy210 at the indicated concentrations for 72 hours. RNA was then extracted and analyzed by Q-RT-PCR for the expression of the genes as indicated and normalized to GAPDH expression.

The test system of test [7] is LL97A cells. Briefly: TGFβ-induced COL1A1 and a-SMA expression by Q-RT-PCR in LL97A cells. The test is classed as cell-based, human. As to conditions: 48 hours, FIG. 8. On the procedure: LL97A cells were pretreated in F12K medium containing 1% FBS for 24 hours and then the cells were treated with TGFβ in the absence or presence of Oxy210 at the indicated concentrations. After 48 hours, RNA was extracted and analyzed by Q-RT-PCR for the expression of the genes as indicated and normalized to GAPDH expression.

Test [8] relates to LL97A cells. As to the kind of experiment: Basal COL1A1 expression by Q-RT-PCR in LL97A cells. The test is classed as cell-based, human. As to conditions: F12K 1% FBS, 72 hours, FIG. 9, p<0.01 vs control. As to the method:
LL97A cells were treated in F12K medium containing 1% FBS and Oxy210 at the indicated concentrations for 72 hours. RNA was then extracted and analyzed by Q-RT-PCR for the expression of the genes as indicated and normalized to GAPDH expression.

Test [9] concerns C57BL/6 mice. As to the kind of experiment: Bleomycin-induced pulmonary fibrosis in mice, H&E staining of lung sections. It counts as in vivo. The following applies: bleomycin once intratracheally, FIG. 10. As to the method: C57BL/6 mice were treated once intratracheally with bleomycin with or without pirfenidone or Oxy210.

Structures are written as SMILES.

Turning to `C[C@]12CC[C@H]3[C@@H](CC=C4C[C@@H](O)CC[C@@]43C)[C@@H]1CC[C@@H]2[C@](C)(O)CCc1cccnc1` [Oxy210], in test [1], the “basal expression of TGFβ target genes” value is “inhibition of basal expression of TGFβ target genes”. In addition, the “basal expression of profibrogenic genes” value in test [2] is “inhibition of basal expression of profibrogenic genes”. In addition, the “TGFβ-induced epithelial mesenchymal transition (EMT)” value in [3] is “inhibition of TGFβ-induced epithelial mesenchymal transition (EMT)”. Moreover, the cell proliferation result in test [4] is given as “inhibition of IMR-90 normal human lung fibroblast cell proliferation”; in [5], “inhibition of proliferation of LL97A human lung fibroblast cells”. Further, the “basal profibrotic gene expression” value in test [6] is on record as “inhibits basal profibrotic gene expression”. For the same compound, the “TGFβ-induced COL1A1 expression” value in test [7] is “inhibits”. Besides, the “TGFβ-induced a-SMA expression” value in test [7] is listed as “inhibits”. In addition, the “basal COL1A1 expression” value in test [8] was “inhibits basal COL1A1 expression”. For the same compound, the “bleomycin-induced damages to the lung architecture” value in [9] was “clear beneficial effect”.

The values are drawn from patent US20230381201A1, “METHODS AND COMPOSITIONS FOR TREATING FIBROTIC DISEASES” (MAX BioPharma, Inc., priority 2020, published 2023).
